From patent US7767659B2, “Synthesis of naturally occurring ecteinascidins and related compounds” (Pharma Mar, S.A., priority 2002, dated 2010)

Columns and labels:
K-562 = assay: Inhibition of cells growth by colorimetric assay (SRB); settings: Homo sapiens, K562, 48 h
How it was run: (§1)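 Colorimetric SRB read (490 nm) on triplicate wells after 48 h at 37 °C, 5% CO2. Dose range 10 to 10^−8 μg/ml; 5×10^3 cells/well pre-attached 18 h.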

HeLa-APL = assay: as above; settings: Homo sapiens, 48 h
How it was run: as §1

SK-MEL-28 = assay: as above; settings: Homo sapiens, SK-MEL-28, 48 h
How it was run: as §1

DU-145 = assay: as above; settings: Homo sapiens, DU-145, 48 h
How it was run: as §1

IGROV-1 = assay: as above; settings: Homo sapiens, IGROV-1, 48 h
How it was run: as §1

SK-BR-3 = assay: as above; settings: Homo sapiens, SK-BR-3, 48 h
How it was run: as §1

PANC-1 = assay: as above; settings: Homo sapiens, PANC-1, 48 h
How it was run: as §1

LNCaP = assay: as above; settings: Homo sapiens, LNCaP, 48 h
How it was run: as §1

IGROV-ET = assay: as above; settings: Homo sapiens, 48 h
How it was run: as §1

LoVo-Dox = assay: as above; settings: Homo sapiens, 48 h
How it was run: as §1

HeLa = assay: as above; settings: Homo sapiens, HeLa, 48 h
How it was run: as §1

LoVo = assay: cells; settings: Homo sapiens, LoVo, 48 h
How it was run: as §1

A-549 = assay: cells; settings: Homo sapiens, A549, 48 h
How it was run: as §1

HT-29 = assay: cells; settings: Homo sapiens, HT-29, 48 h
How it was run: as §1

C=CCN1[C@@H]2c3c(cc(C)c(OC)c3O)C[C@H]1[C@H](C#N)N1C2[C@@H]2SC[C@]3(NCCc4cc(OC(=O)OC(C)(C)C)c(OC)cc43)C(=O)OC[C@H]1c1c3c(c(C)c(OC(=O)CCCCCCC)c12)OCO3 (stereo partly drawn) [compound 48]
GI50 (K-562; read-out: K562 GI50): 0.515 µM | CC50 (K-562; read-out: K562 LC50): 10.2 µM | IC (TGI) (K-562; read-out: K562 TGI): 2.73 µM | GI50 (HeLa-APL; read-out: HELA-APL GI50): 1.87 µM | CC50 (HeLa-APL; read-out: HELA-APL LC50): 7.87 µM | IC (TGI) (HeLa-APL; read-out: HELA-APL TGI): 3.83 µM | GI50 (SK-MEL-28; read-out: MEL-28 GI50): 3.19 µM | CC50 (SK-MEL-28; read-out: MEL-28 LC50): 10.2 µM | IC (TGI) (SK-MEL-28; read-out: MEL-28 TGI): 10.2 µM | GI50 (DU-145; read-out: DU145 GI50): 2.55 µM | CC50 (DU-145; read-out: DU145 LC50): 10.2 µM | IC (TGI) (DU-145; read-out: DU145 TGI): 6.26 µM | GI50 (IGROV-1; read-out: IGROV GI50): 3.52 µM | CC50 (IGROV-1; read-out: IGROV LC50): 10.2 µM | IC (TGI) (IGROV-1; read-out: IGROV TGI): 10.2 µM | GI50 (SK-BR-3; read-out: SK-BR3 GI50): 0.682 µM | CC50 (SK-BR-3; read-out: SK-BR3 LC50): 10.2 µM | IC (TGI) (SK-BR-3; read-out: SK-BR3 TGI): 4 µM | GI50 (PANC-1; read-out: PANC-1 GI50): 4.42 µM | CC50 (PANC-1; read-out: PANC-1 LC50): 10.2 µM | IC (TGI) (PANC-1; read-out: PANC-1 TGI): 10.2 µM | GI50 (LNCaP; read-out: LNCAP GI50): 1.67 µM | CC50 (LNCaP; read-out: LNCAP LC50): 6.31 µM | IC (TGI) (LNCaP; read-out: LNCAP TGI): 3.24 µM | GI50 (IGROV-ET; read-out: IGROV-ET GI50): 3.72 µM | CC50 (IGROV-ET; read-out: IGROV-ET LC50): 10.2 µM | IC (TGI) (IGROV-ET; read-out: IGROV-ET TGI): 10.2 µM | GI50 (LoVo-Dox; read-out: LOVO-DOX GI50): 10.2 µM | CC50 (LoVo-Dox; read-out: LOVO-DOX LC50): 10.2 µM | IC (TGI) (LoVo-Dox; read-out: LOVO-DOX TGI): 10.2 µM | GI50 (HeLa; read-out: HELA GI50): 2.17 µM | CC50 (HeLa; read-out: HELA LC50): 10.2 µM | IC (TGI) (HeLa; read-out: HELA TGI): 5.11 µM | GI50 (LoVo; read-out: LOVO GI50): 4.01 µM | CC50 (LoVo; read-out: LOVO LC50): 10.2 µM | IC (TGI) (LoVo; read-out: LOVO TGI): 10.2 µM | GI50 (A-549; read-out: A549 GI50): 8.1 µM | CC50 (A-549; read-out: A549 LC50): 10.2 µM | IC (TGI) (A-549; read-out: A549 TGI): 10.2 µM | GI50 (HT-29; read-out: HT29 GI50): 6.71 µM | CC50 (HT-29; read-out: HT29 LC50): 10.2 µM | IC (TGI) (HT-29; read-out: HT29 TGI): 10.2 µM
